Read-outs that look alike come from different tables or passages of the source.
Key:
[1] = test system: human T lymphocytes; type: cell-based; settings: AAV6 (GFP); 20 µM Vx-11e compared to untreated cells; average, three donors
[2] = test system: T cells; type: cell-based, Human; settings: for increase in CAR expression: with vs without 400 nM deucravacitinib

Row | Molecule | AAV6 mediated transduction efficiency increase [1] | optimal doses [2] | VSV-LV mediated transduction efficiency increase ([2]; VSV-LV, 20 µM VX-11e, average, three donors) | increase in CAR expression ([2]; CD4-LV, CD4 T cells, average, three donors) | increase in CAR expression ([2]; CD8-LV, CD8 T cells, average, three donors) | optimal dose ([2]; treatment of cells for 24 hours, CAR expression after LV transduction (one donor))
1 | Cc1cnc(Nc2ccc(F)cc2Cl)nc1-c1c[nH]c(C(=O)N[C@H](CO)c2cccc(Cl)c2)c1 [VX-11e] | up to 2.1 fold | 20 µM | up to 1.8 fold |  |  | 
2 | CC(C)Nc1cc(-c2c[nH]c(C(=O)N[C@H](CO)c3cccc(Cl)c3)c2)c(Cl)cn1 [ulixertinib] |  | 5 µM |  |  |  | 
3 | Deucravacitinib |  |  |  | up to 1.7 fold | ≤ 3.6 fold | 400 nM

Source: EP4636093A1, “TARGETING MAPK-ERK PATHWAY FOR ENHANCING NUCLEIC ACID DELIVERY” (priority 2024, dated 2025)
